Reference: ChEMBL document CHEMBL5724914, “Linking interpersonal differences in gut microbiota composition and drug biotransformation activity” (2024)

How the values were obtained:
[1] = human gut metagenome, 24 h, 2 µM
[2] = (§1) The drug is tested on WLS-082 corresponding to human gut metagenome with ENA study accession number: PRJEB37062 and ENA sample accession number: ERS12561751 for biotransformation under anaerobic condition. The drug concentrations were measured over 9 timepoints collected between 0 and 24 hours of incubation by liquid-chromatography-coupled mass spectrometry (LC–MS); conditions: 2 µM
[3] = human gut metagenome, 24 h, 2 µM; remark: listed apart in the source
[4] = as §1, with “Z-025” for “WLS-082”, “rabbit” for “human”, “ERS12561824” for “ERS12561751”; conditions: 2 µM
[5] = human gut metagenome, 24 h, 2 µM; remark: listed apart in the source
[6] = as §1, with “WLS-006” for “WLS-082”, “ERS12561741” for “ERS12561751”; conditions: 2 µM
[7] = as §1, with “Z-009” for “WLS-082”, “pig” for “human”, “ERS12561809” for “ERS12561751”; conditions: 2 µM
[8] = human gut metagenome, 24 h, 2 µM; remark: listed apart in the source
[9] = human gut metagenome, 24 h, 2 µM; remark: listed apart in the source
[10] = human gut metagenome, 24 h, 2 µM; remark: listed apart in the source
[11] = human gut metagenome, 24 h, 2 µM; remark: listed apart in the source
[12] = as §1, with “Z-024” for “WLS-082”, “pig” for “human”, “ERS12561823” for “ERS12561751”; conditions: 2 µM
[13] = as §1, with “Z-017” for “WLS-082”, “mouse” for “human”, “ERS12561816” for “ERS12561751”; conditions: 2 µM
[14] = human gut metagenome, 24 h, 2 µM; remark: listed apart in the source
[15] = as §1, with “Z-005” for “WLS-082”, “to” for “to human gut”, “ERS12561805” for “ERS12561751”; conditions: 2 µM
[16] = as §1, with “Z-028” for “WLS-082”, “mouse” for “human”, “ERS12561827” for “ERS12561751”; conditions: 2 µM
[17] = as §1, with “Z-018” for “WLS-082”, “pig” for “human”, “ERS12561817” for “ERS12561751”; conditions: 2 µM
[18] = human gut metagenome, 24 h, 2 µM; remark: listed apart in the source
[19] = as §1, with “WLS-086” for “WLS-082”, “ERS12561752” for “ERS12561751”; conditions: 2 µM
[20] = as §1, with “WLS-073” for “WLS-082”, “ERS12561749” for “ERS12561751”; conditions: 2 µM
Further: call rule not given here.

SMILES | Bacterial Biotransformation [1] | Bacterial Biotransformation [2] | Bacterial Biotransformation [3] | Bacterial Biotransformation [4] | Bacterial Biotransformation [5] | Bacterial Biotransformation [6] | Bacterial Biotransformation [7] | Bacterial Biotransformation [8] | Bacterial Biotransformation [9] | Bacterial Biotransformation [10] | Bacterial Biotransformation [11] | Bacterial Biotransformation [12] | Bacterial Biotransformation [13] | Bacterial Biotransformation [14] | Bacterial Biotransformation [15] | Bacterial Biotransformation [16] | Bacterial Biotransformation [17] | Bacterial Biotransformation [18] | Bacterial Biotransformation [19] | Bacterial Biotransformation [20]
Clc1cccc(Cl)c1N=C1NCCN1 [CLONIDINE] | Compound NOT metabolized | Compound NOT metabolized | Compound metabolized | Compound NOT metabolized | Compound NOT metabolized | Compound metabolized | Compound metabolized | Compound metabolized | Compound NOT metabolized | Compound metabolized | Compound metabolized | Compound NOT metabolized | Compound NOT metabolized | Compound NOT metabolized | Compound NOT metabolized | Compound NOT metabolized | Compound metabolized | Compound NOT metabolized | Compound metabolized | Compound NOT metabolized
COC(=O)[C@H](c1ccccc1Cl)N1CCc2sccc2C1.O=S(=O)(O)O [CLOPIDOGREL BISULFATE] | Compound metabolized | Compound metabolized | Compound metabolized | Compound metabolized | Compound metabolized | Compound metabolized | Compound metabolized | Compound metabolized | Compound metabolized | Compound metabolized | Compound metabolized | Compound metabolized | Compound metabolized | Compound metabolized | Compound metabolized | Compound NOT metabolized | Compound metabolized | Compound metabolized | Compound metabolized | Compound metabolized
O=P1(N(CCCl)CCCl)NCCCO1 (stereo not given) [CYCLOPHOSPHAMIDE ANHYDROUS] | Compound metabolized | Compound metabolized | Compound NOT metabolized | Compound NOT metabolized | Compound NOT metabolized | Compound NOT metabolized | Compound metabolized | Compound metabolized | Compound NOT metabolized | Compound metabolized | Compound metabolized | Compound NOT metabolized | Compound NOT metabolized | Compound NOT metabolized | Compound NOT metabolized | Compound NOT metabolized | Compound NOT metabolized | Compound NOT metabolized | Compound metabolized | Compound NOT metabolized
Br.COc1ccc2c(c1)[C@]13CCCC[C@@H]1[C@H](C2)N(C)CC3.O [DEXTROMETHORPHAN HYDROBROMIDE] | Compound metabolized | Compound NOT metabolized | Compound metabolized | Compound metabolized | Compound metabolized | Compound metabolized | Compound metabolized | Compound metabolized | Compound metabolized | Compound metabolized | Compound NOT metabolized | Compound metabolized | Compound NOT metabolized | Compound NOT metabolized | Compound NOT metabolized | Compound NOT metabolized | Compound metabolized | Compound NOT metabolized | Compound metabolized | Compound NOT metabolized
CC(=O)Nc1ccc(OC(C)=O)cc1 [DIACETAMATE] | Compound metabolized | Compound metabolized | Compound metabolized | Compound metabolized | Compound metabolized | Compound metabolized | Compound metabolized | Compound metabolized | Compound metabolized | Compound metabolized | Compound metabolized | Compound metabolized | Compound metabolized | Compound metabolized | Compound metabolized | Compound metabolized | Compound metabolized | Compound metabolized | Compound metabolized | Compound metabolized
CCN(CC)CCOC(=O)C1(C2CCCCC2)CCCCC1 [DICYCLOMINE] | Compound NOT metabolized | Compound metabolized | Compound NOT metabolized | Compound NOT metabolized | Compound metabolized | Compound metabolized | Compound metabolized | Compound metabolized | Compound metabolized | Compound NOT metabolized | Compound metabolized | Compound metabolized | Compound NOT metabolized | Compound NOT metabolized | Compound NOT metabolized | Compound NOT metabolized | Compound NOT metabolized | Compound metabolized | Compound metabolized | Compound NOT metabolized
COc1ccc([C@@H]2Sc3ccccc3N(CCN(C)C)C(=O)[C@@H]2OC(C)=O)cc1 [DILTIAZEM] | Compound NOT metabolized | Compound metabolized | Compound metabolized | Compound NOT metabolized | Compound metabolized | Compound metabolized | Compound metabolized | Compound metabolized | Compound NOT metabolized | Compound metabolized | Compound metabolized | Compound NOT metabolized | Compound NOT metabolized | Compound metabolized | Compound NOT metabolized | Compound metabolized | Compound metabolized | Compound NOT metabolized | Compound metabolized | Compound metabolized
OCCN(CCO)c1nc(N2CCCCC2)c2nc(N(CCO)CCO)nc(N3CCCCC3)c2n1 [DIPYRIDAMOLE] | Compound metabolized | Compound NOT metabolized | Compound NOT metabolized | Compound NOT metabolized | Compound metabolized | Compound NOT metabolized | Compound metabolized | Compound metabolized | Compound metabolized | Compound metabolized | Compound metabolized | Compound metabolized | Compound NOT metabolized | Compound metabolized | Compound metabolized | Compound NOT metabolized | Compound metabolized | Compound NOT metabolized | Compound metabolized | Compound NOT metabolized
